According to the supplement of paper PMC10307832:

What was measured:
Experiment in all cases: relative viability (nuclei count vs DMSO), 5 days (fraction); higher = more cells survive
Bexarotene + OSI-027 = compound: C=C(c1ccc(C(=O)O)cc1)c1cc2c(cc1C)C(C)(C)CCC2(C)C [Bexarotene] + COc1cccc2cc(-c3nc([C@H]4CC[C@H](C(=O)O)CC4)n4ncnc(N)c34)[nH]c12 [OSI-027] (partner 0.5 µM)
Procedure, shortened: (§1)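 The day after seeding in 1536-well plates, lung cancer cell lines were treated by pin tool with a single drug, or with a fixed anchor-drug dose together with five library-drug doses (not always all listed) in √10 steps. After 5 days, a combined fix-and-stain solution (final 0.05% Triton X-100, 1% formaldehyde, 1 ug/ml Hoechst) was added. Nuclei counted on 4× images gave relative viability as treated counts over vehicle counts, reported as the median of duplicate plates.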

Bexarotene + Lapatinib = compound: C=C(c1ccc(C(=O)O)cc1)c1cc2c(cc1C)C(C)(C)CCC2(C)C [Bexarotene] + CS(=O)(=O)CCNCc1ccc(-c2ccc3ncnc(Nc4ccc(OCc5cccc(F)c5)c(Cl)c4)c3c2)o1 [Lapatinib] (partner 2 µM)
Procedure, shortened: as §1

Bexarotene + Luminespib = compound: C=C(c1ccc(C(=O)O)cc1)c1cc2c(cc1C)C(C)(C)CCC2(C)C [Bexarotene] + CCNC(=O)c1noc(-c2cc(C(C)C)c(O)cc2O)c1-c1ccc(CN2CCOCC2)cc1 [Luminespib] (partner 0.01 µM)
Procedure, shortened: as §1

Bexarotene + Linsitinib = compound: C=C(c1ccc(C(=O)O)cc1)c1cc2c(cc1C)C(C)(C)CCC2(C)C [Bexarotene] + C[C@]1(O)C[C@@H](c2nc(-c3ccc4ccc(-c5ccccc5)nc4c3)c3c(N)nccn32)C1 [Linsitinib] (partner 1 µM)
Procedure, shortened: as §1

| Cell Line | relative viability (Bexarotene + OSI-027; first compound 0.08 µM) | relative viability (Bexarotene + OSI-027; first compound 0.253 µM) | relative viability (Bexarotene + OSI-027; first compound 0.8 µM) | relative viability (Bexarotene + OSI-027; first compound 2.53 µM) | relative viability (Bexarotene + OSI-027; first compound 8 µM) | relative viability (Bexarotene + Lapatinib; first compound 0.08 µM) | relative viability (Bexarotene + Lapatinib; first compound 0.253 µM) | relative viability (Bexarotene + Lapatinib; first compound 0.8 µM) | relative viability (Bexarotene + Lapatinib; first compound 2.53 µM) | relative viability (Bexarotene + Lapatinib; first compound 8 µM) | relative viability (Bexarotene + Luminespib; first compound 0.08 µM) | relative viability (Bexarotene + Luminespib; first compound 0.253 µM) | relative viability (Bexarotene + Luminespib; first compound 0.8 µM) | relative viability (Bexarotene + Luminespib; first compound 2.53 µM) | relative viability (Bexarotene + Luminespib; first compound 8 µM) | relative viability (Bexarotene + Linsitinib; first compound 0.08 µM) | relative viability (Bexarotene + Linsitinib; first compound 0.253 µM) | relative viability (Bexarotene + Linsitinib; first compound 0.8 µM) | relative viability (Bexarotene + Linsitinib; first compound 2.53 µM) | relative viability (Bexarotene + Linsitinib; first compound 8 µM) |
| --- | --- | --- | --- | --- | --- | --- | --- | --- | --- | --- | --- | --- | --- | --- | --- | --- | --- | --- | --- | --- |
| NCI-H838 | 0.443 | 0.391 | 0.465 | 0.47 | 0.554 | 1.05 | 1.19 | 0.974 | 1.14 | 1.03 | 0.368 | 0.377 | 0.269 | 0.329 | 0.321 | 1.13 | 1.11 | 1.03 | 1.17 | 1.06 |
| NCI-H1437 | 0.985 | 0.819 | 1.01 | 0.89 | 0.982 | 0.975 | 0.893 | 0.759 | 0.9 | 0.778 | 1.05 | 1.07 | 1.15 | 1.07 | 1.1 | 1.01 | 1.09 | 0.93 | 1 | 0.898 |
| SK-LU-1 | 0.41 | 0.395 | – | 0.352 | 0.351 | 0.938 | 0.955 | – | 1 | 0.692 | 0.201 | 0.188 | – | 0.177 | 0.173 | 1.22 | 1.12 | – | 0.93 | 1.23 |
| BEN | 0.294 | 0.309 | 0.292 | 0.266 | 0.254 | 0.869 | 0.51 | 0.623 | 0.513 | 0.66 | 0.336 | 0.247 | 0.409 | 0.078 | 0.252 | 1.04 | 0.883 | 0.847 | 0.76 | 0.742 |
| LC-2-ad | 0.894 | 0.944 | 0.779 | 0.8 | 0.881 | 0.993 | 1.09 | 1.07 | 0.994 | 0.997 | 1.01 | 0.978 | 1.04 | 1 | 1.1 | 0.88 | 0.94 | 0.742 | 0.786 | 0.881 |
| COR-L23 | 0.807 | 0.883 | 0.579 | 0.679 | 0.715 | 1.24 | 0.921 | 0.976 | 0.976 | 0.879 | 0.795 | 0.786 | 0.565 | 0.629 | 0.618 | 0.936 | 0.984 | 0.641 | 0.737 | 0.762 |
| RERF-LC-KJ | 0.522 | 0.572 | 0.539 | 0.562 | 0.506 | 0.798 | 0.799 | 0.702 | 0.767 | 0.757 | 1.17 | 1.23 | 1.1 | 1.1 | 1.07 | 0.8 | 0.827 | 0.755 | 0.782 | 0.83 |
| NCI-H1915 | 0.67 | 0.661 | 0.568 | 0.594 | 0.601 | 1.1 | 0.793 | 0.979 | 0.999 | 1.04 | 0.805 | 0.742 | 0.748 | 0.714 | 0.724 | 1.16 | 1.12 | 1.03 | 1.04 | 1.07 |
| NCI-H596 | 0.859 | 0.69 | 0.704 | 0.708 | 0.634 | 1.07 | 1 | 0.783 | 0.916 | 0.928 | 1.08 | 1.18 | 1.01 | 0.983 | 0.963 | 1.12 | 0.966 | 0.838 | 0.981 | 1.06 |
| NCI-H2009 | 0.729 | 0.705 | 0.584 | 0.547 | 0.598 | 0.794 | 1.14 | 1.06 | 1.06 | 0.999 | 1.19 | 1.18 | 1.12 | 1.2 | 1.02 | 1.33 | 1.36 | 1.13 | 1.18 | 1.13 |
| NCI-H2126 | 0.675 | 0.71 | 0.742 | 0.74 | 0.683 | 0.768 | 0.741 | 0.73 | 0.81 | 0.757 | 0.929 | 0.843 | 0.924 | 0.916 | 0.823 | 0.8 | 0.762 | 0.789 | 0.791 | 0.753 |
| LXF-289 | 0.912 | 0.925 | 0.757 | 0.572 | 0.731 | 1 | 1.07 | 1.04 | 1.07 | 1.03 | 0.8 | 0.824 | 0.798 | 0.874 | 0.8 | 1.06 | 1.11 | 1.04 | 1.11 | 1.01 |
| NCI-H1563 | 0.842 | 0.787 | 0.813 | 0.897 | 0.849 | 1.09 | 0.945 | 0.799 | 0.903 | 0.891 | 0.518 | 0.493 | 0.48 | 0.524 | 0.503 | 1.21 | 1.28 | 1.03 | 1.06 | 1.04 |
| HCC-44 | 0.58 | 0.589 | 0.553 | 0.496 | 0.502 | 1.06 | 1.06 | 0.919 | 0.924 | 0.879 | 1.31 | 1.03 | 1.08 | 1.02 | 0.977 | 0.683 | 0.727 | 0.56 | 0.683 | 0.615 |
| PC-14 | 0.88 | 0.938 | 0.743 | 0.836 | 0.647 | 0.347 | 0.401 | 0.365 | 0.327 | 0.337 | 0.17 | 0.178 | 0.157 | 0.162 | 0.279 | 0.99 | 1.06 | 0.935 | 1 | 0.934 |
